Reference: EP1938810A1, “AMELIORATING AGENT FOR METABOLIC SYNDROME” (FUJI CHEMICAL INDUSTRY CO., LTD., priority 2005, dated 2007)

Legend:
[1] = Change in body weight of rats under oral astaxanthin; assay type: in vivo, rat; settings: for body weight: SHR/Ndmer rats
Experimental: (§1) Female 5 weeks old, metabolic syndrome model rats (SHR/Ndmer) (a product of Sankyo laboratories Co., Ltd.) were purchased and reared for about a week in a laboratory animals rearing room of a constant temperature (24 ± 1 °C), a constant humidity (54 ± 5 %) and a 12 hour light-dark cycle, and thereafter used for the experiment. Water and feed were provided ad lib to them. In the experiment, each group consists of 6 rats with proviso that 5 Wistar rats as normal group were used. Sample was orally administered to all rats in the afternoon.
(§2) • 1) Control group: olive oil was administered in an amount of 1 ml per 1 kg of body weight of rat. • 2) Astaxanthin 5 mg/Kg administration group: astaxanthin was administered in an amount of 5 mg in admixture with I ml of olive oil per 1 kg of body weight of rat. • 3) Astaxanthin 50 mg/Kg administration group: astaxanthin was administered in an amount of 50 mg in admixture with I ml of olive oil per 1 kg of body weight of rat. • 4) Normal group: olive oil was administered in an amount of 1 ml per 1 kg of body weight of Wister rat

[2] = system: metabolic syndrome model rats (SHR/Ndmer); experiment: Measurement of blood pressure (tail artery, plethysmography); assay type: in vivo, rat; settings: for diastolic blood pressure / systolic blood pressure: SHR/Ndmer rats
Experimental: Rats were broken in the apparatus since a week ago from the beginning of the experiment. They were bound slightly under a non-anesthetic and cuff with a built-in infrared sensor (THC-1, a product of Softron Co., Ltd. was applied to the tail artery to measure pressure (maximum, minimum and an average blood pressures) by a plethysmography. The measurement of blood pressure was conducted in the afternoon.
as §1, §2

[3] = system: metabolic syndrome model rats (SHR/Ndmer); experiment: Fasting blood glucose value; assay type: in vivo, rat; settings: overnight fasting
Experimental: Water only was given to rats ad lib from the day before the measurement not so as to give any feed to them. In the afternoon, 0.5 U of insulin was injected to them in an amount of 1 ml per 1 kg of the body weight, and the exsanguinations were conducted at given times to measure the glucose concentration in blood using a Antisence Π (a product of Horive Ltd).
as §1, §2

[4] = system: metabolic syndrome model rats (SHR/Ndmer); experiment: Blood glucose value after insulin injection (insulin resistance test); assay type: in vivo, rat; settings: for blood glucose value after insulin infection: SHR/Ndmer rats, fasted, 120 minutes after 0.5U insulin
Experimental: Water only was given to rats ad lib from the day before the measurement not so as to give any feed to them. In the afternoon, 0.5 U of insulin was injected to them in an amount of 1 ml per 1 kg of the body weight, and the exsanguinations were conducted at given times to measure the glucose concentration in blood using a […] Π (a product of Horive Ltd). Female 5 weeks old, metabolic syndrome model rats ([…] product of Sankyo laboratories Co., Ltd.) were purchased and reared for about a week in a laboratory animals rearing room of a constant temperature (24 ± 1 °C), a constant humidity (54 ± 5 %) and a 12 hour light-dark cycle, and thereafter used for the experiment. Water and feed were provided ad lib to them. In the experiment, each group consists of 6 rats with proviso that 5 Wistar rats as normal group were used. Sample was orally administered to all rats in the afternoon. • 1) Control group: olive oil was administered in an amount of 1 ml per 1 kg of body weight of rat. • 2) Astaxanthin 5 mg/Kg administration group: astaxanthin was administered in an amount of 5 mg in admixture with I ml of olive oil per 1 kg of body weight of rat. • 3) Astaxanthin 50 mg/Kg administration group: astaxanthin was administered in an amount of 50 mg in admixture with I ml of olive oil per 1 kg of body weight of rat. • 4) Normal group: olive oil was administered in an amount of 1 ml per 1 kg of body weight of Wister rat

[5] = system: metabolic syndrome model rats (SHR/Ndmer); experiment: Measurement of fat in blood (triglyceride G test); assay type: in vivo, rat; settings: for blood fat: Ax 50 mg/kg oral, SHR/Ndmer rats
Experimental: The supernatant formed after centrifugation was subjected to the triglyceride G test using an enzyme (a product of Wako Pure Chemical Industries, Ltd.) to measure the fat concentration in blood.
as §1, §2

[6] = system: metabolic syndrome model rats (SHR/Ndmer); experiment: Measurement of adiponectin in blood (ELISA); assay type: in vivo, rat; settings: for blood adiponectin concentration: Ax 50 mg/kg oral, SHR/Ndmer rats
Experimental: I ml of blood was exsanguinated from a rat. After centrifugation, the obtained supernatant was subjected to ELISA kit for measuring adiponectin (Otsuka Pharmaceutical Inc.) to measure the adiponectin concentration in blood
as §1, §2

[7] = background statement; cited from earlier work
[8] = Ax 5 mg/kg oral, at 6 weeks old
[9] = Ax 5 mg/kg oral, at 9 weeks old
[10] = Ax 5 mg/kg oral, at 17 weeks old
[11] = Ax 50 mg/kg oral, at 6 weeks old
[12] = Ax 50 mg/kg oral, at 9 weeks old
[13] = Ax 50 mg/kg oral, at 17 weeks old
[14] = Ax 5 mg/kg oral, at 12 weeks old
[15] = Ax 5 mg/kg oral, at 24 weeks old
[16] = Ax 50 mg/kg oral, at 12 weeks old
[17] = Ax 50 mg/kg oral, at 24 weeks old
[18] = Ax 5 mg/kg oral, at 7 weeks old
[19] = Ax 50 mg/kg oral, at 7 weeks old

`CC1=C(/C=C/C(C)=C/C=C/C(C)=C/C=C/C=C(C)/C=C/C=C(C)/C=C/C2=C(C)C(=O)C(O)CC2(C)C)C(C)(C)CC(O)C1=O` (stereo not drawn) [Ax, 3,3'-dihydroxy-β, β-carotene-4, 4'-dione] gave a body weight [1, 8] of 156 g, a body weight [1, 9] of 259 g and a body weight ([1]; Ax 5 mg/kg oral, at 13 weeks old) of 378 g. The body weight [1, 10] was 468 g, the body weight [1, 11] was 148 g and the body weight [1, 12] was 250 g. For the same compound, the body weight ([1]; Ax 50 mg/kg oral, at 13 weeks old) was 368 g, the body weight [1, 13] was 459 g and the “change in the body weight (in words)” value ([1]; administration of astaxanthin, summary of Table 1) was “no change in the body weight”. For the same compound, the diastolic blood pressure [2, 8] was 121 mmHG, the systolic blood pressure [2, 8] was 144 mmHG and the diastolic blood pressure [2, 9] was 130 mmHG. It also gave a systolic blood pressure [2, 9] of 161 mmHG, a diastolic blood pressure [2, 14] of 129 mmHG and a systolic blood pressure [2, 14] of 159 mmHG. For the same compound, the diastolic blood pressure [2, 15] was 155 mmHG, the systolic blood pressure [2, 15] was 185 mmHG and the diastolic blood pressure [2, 11] was 121 mmHG. The systolic blood pressure [2, 11] was 147 mmHG, the diastolic blood pressure [2, 12] was 128 mmHG and the systolic blood pressure [2, 12] was 160 mmHG. It also gave a diastolic blood pressure [2, 16] of 119 mmHG, a systolic blood pressure [2, 16] of 154 mmHG and a diastolic blood pressure [2, 17] of 156 mmHG. For the same compound, the systolic blood pressure [2, 17] was 189 mmHG, the “rise in blood pressure (in words)” value ([2]; administration of astaxanthin, summary of Tables 2 and 3) was “suppresses the rise in blood pressure” and the “fasting blood glucose value” [3, 18] was 132.0 mg/dL. The “fasting blood glucose value” [3, 9] was 98.0 mg/dL, the “fasting blood glucose value” [3, 14] was 88.3 mg/dL and the “fasting blood glucose value” [3, 10] was 108.8 mg/dL. For the same compound, the “fasting blood glucose value” [3, 19] was 135.0 mg/dL, the “fasting blood glucose value” [3, 12] was 109.0 mg/dL and the “fasting blood glucose value” [3, 16] was 89.3 mg/dL. For the same compound, the “fasting blood glucose value” [3, 13] was 111.8 mg/dL, the “blood glucose value after insulin infection” value [4, 18] was 98.0 mg/dL and the “blood glucose value after insulin infection” value [4, 9] was 85.6 mg/dL. For the same compound, the “blood glucose value after insulin infection” value [4, 14] was 81.5 mg/dL, the “blood glucose value after insulin infection” value [4, 10] was 82.2 mg/dL and the “blood glucose value after insulin infection” value [4, 19] was 106.3 mg/dL. The “blood glucose value after insulin infection” value [4, 12] was 81.0 mg/dL, the “blood glucose value after insulin infection” value [4, 16] was 73.8 mg/dL and the “blood glucose value after insulin infection” value [4, 13] was 72.0 mg/dL. For the same compound, the “insulin resistance (in words)” value ([4]; administration of astaxanthin, summary of Table 5) was “significantly improved”, the blood fat ([5]; at 7 weeks old) was 139.5 ± 15.9 mg/dL and the blood fat ([5]; at 12 weeks old) was 304.8 ± 9.9 mg/dL. The “increase in the blood fat with the passage of time (in words)” value ([5]; SHR/Ndmer, versus control group, summary of Table 6) was “suppresses the increase in the blood fat”, the blood adiponectin concentration ([6]; at 7 weeks old) was 7.08 ± 0.43 µg/mL and the blood adiponectin concentration ([6]; at 12 weeks old) was 8.21 ± 0.14 µg/mL. The “adiponectin concentration in blood (in words)” value ([6]; administration of astaxanthin, summary of Table 7) was “increased in comparison with the control group”, the “antioxidative action relative to vitamin E (α-tocopherol)” value [7] was “about 1000 times” and the “antioxidative action relative to β-carotene” value [7] was “about 40 times”.
